Measurements published in patent US11673876B2, “Substituted aminobenzyl heteroaryl compounds as EGFR and/or PI3K inhibitors” (Mekanistic Therapeutics LLC, priority 2020, dated 2023).

How the values were obtained:
[1] = biological target: DNA-PK (Homo sapiens (Human), UniProt P78527); experiment: Z'-LYTE / Adapta kinase assay, DNA-PK; format: biochemical; details: for inhibition at 0.1 µM: read-out: DNA-PK % Inh. @ 100 nM
Procedure, shortened: (§1)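 Z'-LYTE FRET-peptide phosphorylation read as coumarin/fluorescein emission ratio (400 nm excitation); Adapta immunoassay detects ADP formation. 60-min kinase reaction, 60-min development, room temperature.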

[2] = biological target: EGFR (Homo sapiens (Human), UniProt P00533); experiment: Z'-LYTE / Adapta kinase assay, EGFR; format: biochemical; details: for inhibition at 0.1 µM: read-out: EGFR % Inh. @ 100 nM
Sequence of EGFR (P00533 25-1210): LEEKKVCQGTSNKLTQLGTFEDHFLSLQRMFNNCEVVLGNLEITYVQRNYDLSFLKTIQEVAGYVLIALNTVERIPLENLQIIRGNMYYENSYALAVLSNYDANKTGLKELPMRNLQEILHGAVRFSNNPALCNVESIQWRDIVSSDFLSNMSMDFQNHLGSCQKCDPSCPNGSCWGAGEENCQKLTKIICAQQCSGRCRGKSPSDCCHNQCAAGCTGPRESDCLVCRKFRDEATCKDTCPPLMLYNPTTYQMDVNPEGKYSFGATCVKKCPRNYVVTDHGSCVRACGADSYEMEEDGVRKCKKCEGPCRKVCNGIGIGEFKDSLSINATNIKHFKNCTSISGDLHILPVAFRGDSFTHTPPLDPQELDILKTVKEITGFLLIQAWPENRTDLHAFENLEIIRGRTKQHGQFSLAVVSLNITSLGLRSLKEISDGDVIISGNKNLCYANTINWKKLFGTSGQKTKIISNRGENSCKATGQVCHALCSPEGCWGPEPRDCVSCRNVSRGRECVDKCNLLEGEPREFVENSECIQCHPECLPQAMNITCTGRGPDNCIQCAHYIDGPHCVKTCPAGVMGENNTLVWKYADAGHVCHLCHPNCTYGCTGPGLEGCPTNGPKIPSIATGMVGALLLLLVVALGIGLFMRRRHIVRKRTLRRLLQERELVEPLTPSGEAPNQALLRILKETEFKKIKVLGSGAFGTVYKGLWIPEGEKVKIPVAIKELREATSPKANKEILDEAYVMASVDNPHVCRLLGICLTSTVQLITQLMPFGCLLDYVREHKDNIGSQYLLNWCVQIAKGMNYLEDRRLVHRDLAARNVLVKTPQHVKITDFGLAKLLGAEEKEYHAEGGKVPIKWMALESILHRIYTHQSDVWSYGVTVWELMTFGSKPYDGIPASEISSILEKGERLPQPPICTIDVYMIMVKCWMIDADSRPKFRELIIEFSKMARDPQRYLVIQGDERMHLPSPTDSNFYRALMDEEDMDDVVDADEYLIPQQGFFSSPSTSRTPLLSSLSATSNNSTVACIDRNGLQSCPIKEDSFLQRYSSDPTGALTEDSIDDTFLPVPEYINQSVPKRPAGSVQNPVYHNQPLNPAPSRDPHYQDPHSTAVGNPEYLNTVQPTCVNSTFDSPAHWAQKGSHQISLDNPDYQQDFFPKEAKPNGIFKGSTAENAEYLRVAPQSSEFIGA
Procedure, shortened: as §1

[3] = Metabolic stability in human liver microsomes; format: in vitro ADME
Protocol: (§2) Working solution: 5 μL of compound and control stock solution (10 mM in dimethyl sulfoxide (DMSO)) were diluted with 495 μL of acetonitrile (ACN) (intermediate solution concentration: 100 μM, 99% ACN)
(§3) NADPH Cofactor Preparation: NADPH powder: β-Nicotinamide adenine dinucleotide phosphate reduced form, tetrasodium salt; NADPH·4Na. The appropriate amount of NADPH powder was weighed and diluted into a 10 mM MgCl2 solution (working solution concentration: 10 unit/mL; final concentration in reaction system: 1 unit/mL)
(§4) Liver Microsomes Preparation: The appropriate concentrations of microsome working solutions were prepared in 100 mM potassium phosphate buffer. Cold (4° C.) acetonitrile (ACN) containing 200 ng/mL tolbutamide and 200 ng/mL labetalol as internal standards (1S) was used as the stop solution
(§5) Assay Procedure: Pre-warm empty ‘Incubation’ plates T60 and NCF60 for 10 minutes. Dilute liver microsomes to 0.56 mg/mL in 100 mM phosphate buffer. Transfer 445 μL microsome working solutions (0.56 mg/mL) into pre-warmed ‘Incubation’ plates T60 and NCF60, Then pre-incubate ‘Incubation’ plates T60 and NCF60 for 10 min at 37° C. with constant shaking. Transfer 54 μL liver microsomes to blank plate, then add 6 μL NAPDH cofactor to blank plate, and then add 180 μL quenching solution to blank plate. Add 5 μL compound working solution (100 μM) into ‘incubation’ plates (T60 and NCF60) containing microsomes and mix 3 times thoroughly.
(§6) For the NCF60 plate, add 50 μL of buffer and mix 3 times thoroughly. Start timing; plate will be incubated at 37° C. for 60 min while shaking. In ‘Quenching’ plate T0, add 180 μL quenching solution and 6 μL NAPDH cofactor. Ensure the plate is chilled to prevent evaporation. For the T60 plate, mix 3 times thoroughly, and immediately remove 54 μL mixture for the 0-min time point to ‘Quenching’ plate. Then add 44 μL NAPDH cofactor to incubation plate (T60). Start timing; plate will be incubated at 37° C. for 60 min while shaking. At 5, 10, 20, 30, and 60 min, add 180 μL quenching solution to ‘Quenching’ plates, mix once, and serially transfer 60 μL sample from T60 plate per time point to ‘Quenching’ plates. For NCF60: mix once, and transfer 60 μL sample from the NCF60 incubation to ‘Quenching’ plate containing quenching solution at the 60-min time point. All sampling plates are shaken for 10 min, then centrifuged at 4000 rpm for 20 minutes at 4° C. Transfer 80 μL supernatant into 240 μL HPLC water, and mix by plate shaker for 10 min. Each bioanalysis plate was sealed and shaken for 10 minutes prior to LC-MS/MS analysis.
(§7) The equation of first order kinetics was used to calculate T½ and CLint(mic) (μL/min/mg). Equation of first order kinetics: […]
(§8) The biological stability of the compounds of the disclosure can be measured by determining its ½ life in the presence microsomes. Presented in Table 5, is the ½ life of selected compounds of the disclosure in the presence of human liver microsomes (HLM) or mouse liver microsomes (MLM) as described above. In Table 5, ½ life is presented as “++++” (value is greater than 60 minutes), “+++” (value is greater than 30 minutes and less than or equal to 60 minutes), “++” (value is greater than 15 minutes and less than or equal to 30 minutes) and “+” (value is 15 minutes or less).

[4] = Metabolic stability in mouse liver microsomes; format: in vitro ADME
Protocol: as §2, §3, §4, §5, §6, §7, §8

Row | IC50 [1] [nM] | inhibition at 0.1 µM [1] [%] | IC50 [2] [nM] | inhibition at 0.1 µM [2] [%] | ½ life minutes (HLM) [3] | ½ life minutes (MLM) [4] | DNA-PK % Inh. @ 100 nM ([1]; 100 nM) | EGFR % Inh. @ 100 nM ([2]; 100 nM) | Compound
1 | < 2 | > 90 | > 200 | < 10 | ++++ (value is greater than 60 minutes) | ++++ (value is greater than 60 minutes) | – | – | C[C@H](Nc1ncnc2ccc(-c3cnc(Cl)c(NS(C)(=O)=O)c3)cc12)c1ccccc1 [Compound 2S, N-(2-chloro-5-(4-((1S-phenylethyl)amino)quinazolin-6-yl)pyridin-3-yl)methanesulfonamide]
2 | – | 80 to 90 | 20 to 200 | 10 to 80 | ++++ (value is greater than 60 minutes) | ++++ (value is greater than 60 minutes) | – | – | C[C@@H](Nc1ncnc2ccc(-c3cnc(Cl)c(NS(C)(=O)=O)c3)cc12)c1ccc(F)cc1 [Compound 111R, N-(2-chloro-5-(4-((1R-(4-fluorophenyl)ethyl)amino)quinazolin-6-yl)pyridin-3-yl)methanesulfonamide]

The remaining lines, values behind:

Row | Compound | IC50 [1] [nM] | inhibition at 0.1 µM [1] [%] | IC50 [2] [nM] | inhibition at 0.1 µM [2] [%] | ½ life minutes (HLM) [3] | ½ life minutes (MLM) [4] | DNA-PK % Inh. @ 100 nM ([1]; 100 nM) | EGFR % Inh. @ 100 nM ([2]; 100 nM)
3 | CS(=O)(=O)Nc1cc(-c2ccc3ncnc(NCc4ccccc4)c3c2)cnc1Cl [Comparative Compound 1, N-[5-[4-(benzylamino)quinazolin-6-yl]-2-chloro-3-pyridyl]methanesulfonamide, reference compound] | < 2 | > 90 | 20 to 200 | 10 to 80 | ++++ (value is greater than 60 minutes) | ++++ (value is greater than 60 minutes) | – | –
4 | CS(=O)(=O)Nc1cc(-c2ccc3ncnc(Nc4ccc(F)c(Cl)c4)c3c2)cnc1Cl [Comparative Compound 2, reference compound] | < 2 | > 90 | 2 to 20 | > 90 | ++++ (value is greater than 60 minutes) | ++++ (value is greater than 60 minutes) | – | –
5 | CS(=O)(=O)Nc1cncc(-c2ccc3ncnc(NCc4ccccc4)c3c2)c1 [Comparative Compound 3, reference compound] | – | – | – | – | ++++ (value is greater than 60 minutes) | + (value is 15 minutes or less) | **** (value is greater than 90%) | **** (value is greater than 90%)
6 | C[C@@H](Nc1ncnc2ccc(-c3cnc(Cl)c(NS(C)(=O)=O)c3)cc12)c1ccccc1 [Compound 2R, N-(2-chloro-5-(4-((1R-phenylethyl)amino)quinazolin-6-yl)pyridin-3-yl)methanesulfonamide] | 2 to 20 | > 90 | 2 to 20 | 80 to 90 | ++++ (value is greater than 60 minutes) | ++++ (value is greater than 60 minutes) | – | –
7 | CC(Nc1c(C#N)cnc2ccc(-c3cnc(N)nc3)cc12)c1ccccc1 (stereo not drawn) [Compound 53, 6-(2-aminopyrimidin-5-yl)-4-(1-phenylethylamino) quinoline-3-carbonitrile] | 20 to 200 | 10 to 80 | 2 to 20 | 80 to 90 | ++++ (value is greater than 60 minutes) | +++ (value is greater than 30 minutes and less than or equal to 60 minutes) | – | –
8 | C[C@@H](Nc1c(C#N)cnc2ccc(-c3cnc(N)nc3)cc12)c1ccccc1 [Compound 53R, (R)-6-(2-aminopyrimidin-5-yl)-4-((1-phenylethyl)amino)quinoline-3-carbonitrile] | 20 to 200 | 10 to 80 | 2 to 20 | > 90 | +++ (value is greater than 30 minutes and less than or equal to 60 minutes) | +++ (value is greater than 30 minutes and less than or equal to 60 minutes) | – | –
9 | CC(Nc1c(C#N)cnc2ccc(-c3cnc4[nH]ncc4c3)cc12)c1ccccc1 (stereo not drawn) [Compound 54, 4-(1-phenylethylamino)-6-(1H-pyrazolo[3,4-b]pyridin-5-yl)quinoline-3-carbonitrile] | 2 to 20 | 80 to 90 | 2 to 20 | > 90 | +++ (value is greater than 30 minutes and less than or equal to 60 minutes) | + (value is 15 minutes or less) | – | –
